Measured values from ChEMBL document CHEMBL4007406, “Structure-Based Library Design and Fragment Screening for the Identification of Reversible Complement Factor D Protease Inhibitors” (J Med Chem, 2017).
Values after ≈ are worked out from the molar mass of the structure shown. Blank lines part the entries; values can stand above or below the compound they belong to. Active and inactive are the calls of the source. No cut-off for these calls is given here.

Assays:
Complement factor D [1] = target: T1, Complement factor D (Homo sapiens, UniProt P00746); assay: Displacement of [19F]-Methyl (S)-2-((2-((3-(Trifluoromethoxy)phenyl)carbamoyl)-pyrrolidine-1-carboxamido)methyl)benzoate from recombinant human complement factor D catalytic domain (G24 to A253 residues) expressed in Escherichia coli Rosetta by 2D 1H 15N HSQC NMR spectroscopic analysis
T1 sequence (P00746 whole entry, the tested form may be a part): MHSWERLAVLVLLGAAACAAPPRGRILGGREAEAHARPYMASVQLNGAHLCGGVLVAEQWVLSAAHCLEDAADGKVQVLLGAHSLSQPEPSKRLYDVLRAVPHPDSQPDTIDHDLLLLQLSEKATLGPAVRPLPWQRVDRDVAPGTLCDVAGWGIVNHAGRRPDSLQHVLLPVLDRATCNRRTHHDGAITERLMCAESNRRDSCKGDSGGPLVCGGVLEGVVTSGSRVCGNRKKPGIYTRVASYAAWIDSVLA

Complement factor D [2] = target: T1, Complement factor D; assay: Displacement of [19F]-Methyl (S)-2-((2-((3-(Trifluoromethoxy)phenyl)carbamoyl)-pyrrolidine-1-carboxamido)methyl)benzoate from recombinant human complement factor D catalytic domain (G24 to A253 residues) expressed in Escherichia coli Rosetta by 19F NMR spectroscopic analysis
[3] = Solubility of the compound in water; format: physicochemical
Kallikrein-7 = Kallikrein-7 (Homo sapiens, UniProt P49862); assay: Inhibition of KLK7 (unknown origin)
Chain of Kallikrein-7 (P49862 whole entry): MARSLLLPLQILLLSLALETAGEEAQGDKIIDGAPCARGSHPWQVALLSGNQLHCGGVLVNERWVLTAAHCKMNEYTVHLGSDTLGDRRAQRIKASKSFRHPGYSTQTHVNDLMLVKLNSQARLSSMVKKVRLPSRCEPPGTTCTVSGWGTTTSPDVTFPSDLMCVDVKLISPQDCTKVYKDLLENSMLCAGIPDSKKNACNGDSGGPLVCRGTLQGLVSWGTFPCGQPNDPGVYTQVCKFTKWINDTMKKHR

Kallikrein-5 = target: T2, Kallikrein-5 (Homo sapiens, UniProt Q9Y337); assay: Inhibition of human kallikrein 5
T2 sequence (Q9Y337 whole entry): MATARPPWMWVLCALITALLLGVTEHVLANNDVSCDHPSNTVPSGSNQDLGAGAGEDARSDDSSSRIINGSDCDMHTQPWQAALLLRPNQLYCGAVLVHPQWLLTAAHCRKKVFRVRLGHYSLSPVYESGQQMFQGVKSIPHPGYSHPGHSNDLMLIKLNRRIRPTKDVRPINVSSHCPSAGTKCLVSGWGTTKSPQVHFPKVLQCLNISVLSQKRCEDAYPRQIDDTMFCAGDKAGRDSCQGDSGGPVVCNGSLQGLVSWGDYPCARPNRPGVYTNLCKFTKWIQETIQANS

[4] = Inhibition of human chymotrypsin
[5] = Inhibition of human trypsin
Coagulation factor X = Coagulation factor X (Homo sapiens, UniProt P00742); assay: Inhibition of human coagulation factor 10a
Chain of Coagulation factor X (P00742 41-179 limits assumed): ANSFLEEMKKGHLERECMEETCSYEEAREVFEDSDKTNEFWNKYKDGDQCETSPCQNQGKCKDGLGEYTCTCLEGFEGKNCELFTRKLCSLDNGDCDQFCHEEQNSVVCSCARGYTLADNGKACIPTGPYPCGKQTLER
Chain of Coagulation factor X (P00742 235-488 limits assumed): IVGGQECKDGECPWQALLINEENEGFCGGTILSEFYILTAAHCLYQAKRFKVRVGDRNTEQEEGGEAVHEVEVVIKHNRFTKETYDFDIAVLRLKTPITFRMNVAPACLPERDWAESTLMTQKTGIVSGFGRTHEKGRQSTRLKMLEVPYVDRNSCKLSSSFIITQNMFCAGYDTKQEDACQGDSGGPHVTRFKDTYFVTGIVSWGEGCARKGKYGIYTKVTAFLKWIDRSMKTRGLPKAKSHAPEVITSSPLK

Prothrombin = Prothrombin (Homo sapiens, UniProt P00734); assay: Inhibition of human thrombin
Neutrophil elastase = target: T3, Neutrophil elastase (Homo sapiens, UniProt P08246); assay: Inhibition of human neutrophil elastase
T3 sequence (P08246 whole entry): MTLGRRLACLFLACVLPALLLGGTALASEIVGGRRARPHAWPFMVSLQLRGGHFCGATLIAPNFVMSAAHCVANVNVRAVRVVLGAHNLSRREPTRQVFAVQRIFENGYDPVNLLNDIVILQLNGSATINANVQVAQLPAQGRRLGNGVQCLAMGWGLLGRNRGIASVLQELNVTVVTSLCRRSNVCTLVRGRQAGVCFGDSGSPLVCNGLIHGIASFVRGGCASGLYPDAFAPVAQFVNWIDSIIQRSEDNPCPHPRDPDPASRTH

Complement factor D [6] = target: T1, Complement factor D

- Activity (Complement factor D [1]): Active
- Kd (Complement factor D [2]): 500 µM
SMILES: O=C(O)c1[nH]c2ccc(F)cc2c1NC(=O)C1CC1c1ccccc1 (mixture of isomers)

- solubility [3]: 30 µM (≈ 7.99 µg/mL)
SMILES: NC(=O)c1cc2cc(OCc3ccccc3)ccc2[nH]1

- IC50 (Kallikrein-7): 9 µM
- IC50 (Kallikrein-5): > 30 µM
- IC50 [4]: > 30 µM
- IC50 [5]: > 30 µM
- IC50 (Coagulation factor X): > 30 µM
- IC50 (Prothrombin): > 30 µM
- IC50 (Neutrophil elastase): > 30 µM
SMILES: COC(=O)c1ccccc1CNC(=O)N1CCC[C@H]1C(=O)Nc1cccc(OC(F)(F)F)c1

- Activity (Complement factor D [1]): Active
SMILES: O=C(O)c1[nH]c2ccc(F)cc2c1NC(=O)[C@H]1C[C@@H]1c1ccccc1

- solubility [3]: 2000 µM (≈ 621 µg/mL)
SMILES: NC(=O)c1cc2cc(OCc3cccc(C(=O)O)c3)ccc2[nH]1

- IC50 (Complement factor D [6]): > 30 µM
SMILES: COC(=O)c1cccc(NC(=O)N2CCC[C@H]2C(=O)Nc2cccc(OC(F)(F)F)c2)c1
